Assay results reported in US8053439B2, “Benzophenone derivatives useful for inhibiting formation of microtubule” (Chong Kun Dang Pharmaceutical Corp., priority 2006, dated 2011).

System: HL60 cells
Assay: Inhibition effect of HL60 cell line growth (MTT, 3 days)
Format: cell-based
Conditions: Homo sapiens, HL-60, 72 h; HL60 cells, 3 days culture, MTT, absorbance 570 nm; read-out: HL60 Growth Inhibition
Description: 1. Inhibition Effect of HL60 Cell Line Growth
A 10% FBS-contained RPMI1640 badge was used for culturing HL60 cells. The test substance was prepared by dissolving in DMSO to a concentration of 10 mg/ml, and continuously diluting with PBS to a final concentration of 100 μg/ml to 0.03 μg/ml. In a 96-well microplate, 180 μl of the badge containing 6.0×10^4 cells/ml of cells and 20 μl of continuously diluted test substance were added. The mixture was cultured at 37° C. with 5% CO2 atmosphere for 3 days. After completion of the cultivation, 50 μl of a solution of 1.25 mg/ml MTT (3-(4,5-dimethylthiazol-2-yl)-2,5-diphenyltetrazolium bromide) dissolved in PBS was added to all wells, and the resulting mixture was reacted at 37° C. for 3 hours. Thus formed formazan crystals were dissolved in 150 μl of DMSO, and an absorbance was measured at 570 nm.

SMILES	IC50 [nM]
COc1cc(C(=O)c2cc(-c3ccco3)ccc2NCCO)cc(OC)c1OC [Compound 323, (5-(furan-2-yl)-2-(2-hydroxyethylamino)phenyl)(3,4,5-trimethoxyphenyl)methanone]	170
COc1cc(C(=O)c2cc(-c3ccccn3)ccc2NS(C)(=O)=O)cc(OC)c1OC [Compound 335, N-(4-(pyridin-2-yl)-2-(3,4,5-trimethoxybenzoyl)phenyl)methanesulfonamide]	220
COc1cc(C(=O)c2cc(-c3cccc(N)c3)ccc2N)cc(OC)c1OC [Compound 337, (4,5′-diaminophenyl-3-yl)(3,4,5-trimethoxyphenyl)methanone]	190
COc1cc(C(=O)c2cc(-c3ccco3)ccc2NCCCO)cc(OC)c1OC [Compound 341, (5-(furan-2-yl)-2-(3-hydroxypropylamino)phenyl)(3,4,5-trimethoxyphenyl)methanone]	110
COc1cc(C(=O)c2cc(-c3ccco3)ccc2-n2ccnc2)cc(OC)c1OC [Compound 354, (5-(furan-2-yl)-2-(1H-imidazol-1-yl)phenyl)(3,4,5-trimethoxyphenyl)methanone]	110
COc1cc(C(=O)c2cc(-c3ccc[nH]3)ccc2NCCCO)cc(OC)c1OC [Compound 363, (2-(3-hydroxypropylamino)-5-(1H-pyrrole-2-yl)phenyl)(3,4,5-trimethoxyphenyl)methanone]	110
COc1cc(C(=O)c2cc(-c3nccs3)ccc2C(O)CO)cc(OC)c1OC (stereo not drawn) [Compound 372, (2-(1,2-dihydroxyethyl)-5-(thiazol-2-yl)phenyl)(3,4,5-trimethoxyphenyl)methanone]	110
COC(=O)c1ccc(-c2nccs2)cc1C(=O)c1cc(OC)c(OC)c(OC)c1 [Compound 374, 4-(thiazol-2-yl)-2-(3,4,5-trimethoxybenzoyl)benzoic acid methyl ester]	100
COc1cc(C(=O)c2cc(-c3ccco3)ccc2-n2ccnn2)cc(OC)c1OC [Compound 379, (5-(furan-2-yl)-2-(1H-1,2,3,-triazol-1-yl)phenyl)(3,4,5-trimethoxyphenyl)methanone]	110
COc1cc(C(=O)c2cc(-c3ccccn3)ccc2NCCCO)cc(OC)c1OC [Compound 380, (2-(3-hydroxypropylamino)-5-(pyridin-2-yl)phenyl)(3,4,5-trimethoxyphenyl)methanone]	110
COc1cc(C(=O)c2cc(-c3cccs3)ccc2-n2cncn2)cc(OC)c1OC [Compound 391, (5-(thiophen-2-yl)-2-(1H-1,2,4,-triazol-1-yl)phenyl)(3,4,5-trimethoxyphenyl)methanone]	120
COc1cc(C(=S)c2cc(-c3ccco3)ccc2-n2cncn2)cc(OC)c1OC [Compound 399, (5-(furan-2-yl)-2-(1H-1,2,4-triazol-1-yl)phenyl)(3,4,5-trimethoxyphenyl)methanethione]	110
COc1cc(C(=O)c2cc(-c3nccs3)cnc2-n2cncn2)cc(OC)c1OC [Compound 410, (5-(thiazol-2-yl)-2-(1H-1,2,4-triazol-1-yl)pyridin-3-yl)(3,4,5-trimethoxyphenyl)methanone]	100
O=C(c1ccc(-c2ccco2)cc1-n1cncn1)c1c(F)c(F)c(F)c(F)c1F [Compound 446, (4-(furan-2-yl)-2-(1H-1,2,4,-triazol-1-yl)phenyl)(pentafluorophenyl)methanone]	170
COc1cc(C(=O)c2ccc(-c3cncnc3)cc2-n2cncn2)cc(OC)c1OC [Compound 455, (4-(pyrimidin-5-yl)-2-(1H-1,2,4,-triazol-1-yl)phenyl)(3,4,5-trimethoxyphenyl)methanone]	3100
COc1cc(C(=O)c2ccc(-c3ccccc3O)cc2F)cc(OC)c1OC [Compound 457, (2′-hydroxy-3-(fluoro)biphenyl-4-yl)(3,4,5-trimethoxyphenyl)methanone]	11600
COc1cc(C(=O)c2ccc(-c3ccsc3)cc2F)cc(OC)c1OC [Compound 458, (2-fluoro-4-(thiophen-3-yl)phenyl)(3,4,5-trimethoxyphenyl)methanone]	3180

Other lines, results leading:

IC50 [nM]	SMILES
90	COc1cc(C(=O)c2cc(-c3ccco3)ccc2F)cc(OC)c1OC [Compound 327, (2-fluoro-5-(furan-2-yl)phenyl)(3,4,5-trimethoxyphenyl)methanone]
100	COc1cc(C(=O)c2cc(-c3ccccn3)ccc2-n2cncn2)cc(OC)c1OC [Compound 346, (5-(pyridin-2-yl)-2-(1H-1,2,4-triazol-1-yl)phenyl)(3,4,5-trimethoxyphenyl)methanone]
30	COc1cc(C(=O)c2cc(-c3nccs3)ccc2-n2cncn2)cc(OC)c1OC [Compound 347, (5-(thiazol-2-yl)-2-(1H-1,2,4-triazol-1-yl)phenyl)(3,4,5-trimethoxyphenyl)methanone]
100	COc1cc(C(=O)c2cc(-c3nccs3)ccc2NCCCO)cc(OC)c1OC [Compound 348, (2-(3-hydroxypropylamino)-5-(thiazol-2-yl)phenyl)(3,4,5-trimethoxyphenyl)methanone]
100	COc1cc(C(=O)c2cc(-c3ncco3)ccc2-n2cncn2)cc(OC)c1OC [Compound 359, (5-(oxazol-2-yl)-2-(H-1,2,4-triazol-1-yl)phenyl)(3,4,5-trimethoxyphenyl)methanone]
70	COc1cc(C(=O)c2cc(-c3nccs3)ccc2-c2cncnc2)cc(OC)c1OC [Compound 365, (2-(pyrimidin-5-yl)-5-(thiazol-2-yl)phenyl)(3,4,5-trimethoxyphenyl)methanone]
40	COc1cc(C(=O)c2cc(-c3nccs3)ccc2-c2cnco2)cc(OC)c1OC [Compound 375, (2-(oxazol-5-yl)-5-(thiazol-2-yl)phenyl)(3,4,5-trimethoxyphenyl)methanone]
30	COc1cc(C(=O)c2cc(-c3nccs3)ccc2-n2cnnn2)cc(OC)c1OC [Compound 401, (2-(1H-tetrazol-1-yl)-5-(thiazol-2-yl)phenyl)(3,4,5-trimethoxyphenyl)methanone]
30	COc1cc(C(=O)c2cc(-c3ccc[nH]3)ccc2-n2cncn2)cc(OC)c1OC [Compound 409, (5-(1H-pyrrole-2-yl)-2-(1H-1,2,4-triazol-1-yl)phenyl)(3,4,5-trimethoxyphenyl)methanone]
80	COc1cc(C(=O)c2ccc(-c3ccco3)cc2-n2cncn2)cc(OC)c1OC [Compound 443, (4-(furan-2-yl)-2-(1H-1,2,4-triazol-1-yl)phenyl)(3,4,5-trimethoxyphenyl)methanone]
33	COc1cc(C(=O)c2ccc(-c3ccsc3)cc2-n2cncn2)cc(OC)c1OC [Compound 462, (4-(thiophen-3-yl)-2-(1H-1,2,4,-triazol-1-yl)phenyl)(3,4,5-trimethoxyphenyl)methanone]
90	COc1cc(C(=O)c2ccc(-c3nccs3)cc2-n2cncn2)cc(OC)c1OC [Compound 464, (4-(thiazol-2-yl)-2-(1H-1,2,4-triazol-1-yl)phenyl)(3,4,5-trimethoxyphenyl)methanone]
25	COc1cc(C(=O)c2ccc(-c3cccc(NS(C)(=O)=O)c3)cc2-n2cncn2)cc(OC)c1OC [Compound 476, N-(3′-[1,2,4]triazol-1-yl-4′-(3,4,5-trimethoxybenzoyl)biphenyl-3-yl)methanesulfonamide]
